Key:
Test in all cases: relative viability (nuclei count vs DMSO), 5 days (fraction); higher = more cells survive
Ponatinib + Linsitinib = compound: Cc1ccc(C(=O)Nc2ccc(CN3CCN(C)CC3)c(C(F)(F)F)c2)cc1C#Cc1cnc2cccnn12 [Ponatinib] + C[C@]1(O)C[C@@H](c2nc(-c3ccc4ccc(-c5ccccc5)nc4c3)c3c(N)nccn32)C1 [Linsitinib] (partner 1 µM)
Method in brief: (§1)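 One day after seeding in 1536-well plates, lung cancer cell lines were dosed by pin tool. Dosing was either single-drug or a fixed anchor-drug dose plus five library-drug doses (not always all listed) in √10 steps. After 5 days, nuclei were stained in one fix-and-stain step and counted on 4× images, and relative viability is the nuclei count of treated wells over that of vehicle wells, given as the median of duplicate plates.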

Ponatinib + Navitoclax = compound: Cc1ccc(C(=O)Nc2ccc(CN3CCN(C)CC3)c(C(F)(F)F)c2)cc1C#Cc1cnc2cccnn12 [Ponatinib] + CC1(C)CCC(c2ccc(Cl)cc2)=C(CN2CCN(c3ccc(C(=O)NS(=O)(=O)c4ccc(N[C@H](CCN5CCOCC5)CSc5ccccc5)c(S(=O)(=O)C(F)(F)F)c4)cc3)CC2)C1 [Navitoclax] (partner 0.5 µM)
Method in brief: as §1

Pazopanib + Alpelisib = compound: Cc1ccc(Nc2nccc(N(C)c3ccc4c(C)n(C)nc4c3)n2)cc1S(N)(=O)=O [Pazopanib] + Cc1nc(NC(=O)N2CCC[C@H]2C(N)=O)sc1-c1ccnc(C(C)(C)C(F)(F)F)c1 [Alpelisib] (partner 2 µM)
Method in brief: as §1

Ponatinib + Bortezomib = compound: Cc1ccc(C(=O)Nc2ccc(CN3CCN(C)CC3)c(C(F)(F)F)c2)cc1C#Cc1cnc2cccnn12 [Ponatinib] + CC(C)C[C@H](NC(=O)[C@H](Cc1ccccc1)NC(=O)c1cnccn1)B(O)O [Bortezomib] (partner 0.002 µM)
Method in brief: as §1

## UMC-11
Ponatinib + Linsitinib; first compound 0.002 µM
  relative viability: 1.02
Ponatinib + Linsitinib; first compound 0.006325 µM
  relative viability: 1.03
Ponatinib + Linsitinib; first compound 0.06325 µM
  relative viability: 1.16
Ponatinib + Linsitinib; first compound 0.2 µM
  relative viability: 1.03
Ponatinib + Navitoclax; first compound 0.002 µM
  relative viability: 0.311
Ponatinib + Navitoclax; first compound 0.006325 µM
  relative viability: 0.354
Ponatinib + Navitoclax; first compound 0.06325 µM
  relative viability: 0.38
Ponatinib + Navitoclax; first compound 0.2 µM
  relative viability: 0.345
Pazopanib + Alpelisib; first compound 0.01 µM
  relative viability: 1.02
Pazopanib + Alpelisib; first compound 0.03162 µM
  relative viability: 1.05
Pazopanib + Alpelisib; first compound 0.1 µM
  relative viability: 0.804
Pazopanib + Alpelisib; first compound 0.3162 µM
  relative viability: 0.948
Pazopanib + Alpelisib; first compound 1 µM
  relative viability: 1.12
Ponatinib + Bortezomib; first compound 0.002 µM
  relative viability: 0.653
Ponatinib + Bortezomib; first compound 0.006325 µM
  relative viability: 0.769
Ponatinib + Bortezomib; first compound 0.06325 µM
  relative viability: 0.921
Ponatinib + Bortezomib; first compound 0.2 µM
  relative viability: 0.646
